Legend:
human oxytocin receptors = target: T1, human oxytocin receptors (Homo sapiens, UniProt P30559); test: Oxytocin receptor binding assay; conditions: selectivity quotient
T1 construct: expressed in transfected cells; host or cells: HEK-293, transient expression; lysed and homogenized cells
T1 sequence (P30559 1-389): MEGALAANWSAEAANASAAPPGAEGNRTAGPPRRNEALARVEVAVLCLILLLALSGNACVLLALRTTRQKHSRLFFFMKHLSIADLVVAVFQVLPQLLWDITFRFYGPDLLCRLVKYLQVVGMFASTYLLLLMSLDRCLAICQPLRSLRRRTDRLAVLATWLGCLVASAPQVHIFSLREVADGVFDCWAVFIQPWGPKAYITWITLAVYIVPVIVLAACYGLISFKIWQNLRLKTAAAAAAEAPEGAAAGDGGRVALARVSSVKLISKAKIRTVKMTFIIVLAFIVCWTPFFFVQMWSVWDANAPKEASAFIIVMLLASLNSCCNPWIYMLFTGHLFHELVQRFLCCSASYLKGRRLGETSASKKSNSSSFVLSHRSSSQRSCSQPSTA
Method: 4. Oxytocin Receptor Binding Assay
The substances were dissolved in a concentration of 10^−2 M in DMSO and diluted with incubation buffer (50 mM Tris, 10 mM MgCl2, 0.1% BSA, pH 7.4).
Confluent HEK-293 cells with transiently expressing recombinant human oxytocin receptors were centrifuged at 750×g at room temperature for 5 minutes. The residue was taken up in ice-cold lysis buffer (50 mM Tris-HCl, 10% glycerol, pH 7.4 and Roche complete protease inhibitor) and subjected to an osmotic shock at 4° C. for 20 minutes. The lyzed cells were then centrifuged at 750×g at 4° C. for 20 minutes, the residue was taken up in incubation buffer, and aliquots of 10^7 cells/ml were prepared. The aliquots were frozen at −80° C. until used.
On the day of the experiment, the cells were thawed, diluted with incubation buffer and homogenized using a Multipette Combitip (Eppendorf, Hamburg). The reaction mixture of 0.250 ml was composed of 2 to 5×10^4 recombinant cells, 3-4 nM ^3H-oxytocin (PerkinElmer, NET 858) in the presence of test substance (inhibition plot) or only incubation buffer (total binding). The nonspecific binding was determined with 10^−6 M oxytocin (Bachem AG, H2510). Triplicate determinations were set up. Bound and free radioligand were separated by filtration under vacuum with Whatman GF/B glass fiber filters with the aid of a Skatron cell harvester 7000. The bound radioactivity was determined by liquid scintillation measurement in a Tricarb Beta counter, model 2000 or 2200CA (Packard).
The binding parameters were calculated by nonlinear regression analysis (SAS) in analogy to the LIGAND program of Munson and Rodbard (Analytical Biochem 1980; 107: 220-239). The Kd of ^3H-oxytocin for the recombinant hOT receptors is 7.6 nM and was used to determine the Ki.

[1] = target: T2, human vasopressin V1b receptor (Homo sapiens, UniProt P47901); test: Vasopressin V1b receptor binding assay; conditions: CHO-K1 membranes, 3H-AVP displacement
T2 construct: expressed in transfected cells; host or cells: CHO-K1 (cell line hV1b_3H2_CHO), membrane preparation
T2 sequence (P47901 1-424): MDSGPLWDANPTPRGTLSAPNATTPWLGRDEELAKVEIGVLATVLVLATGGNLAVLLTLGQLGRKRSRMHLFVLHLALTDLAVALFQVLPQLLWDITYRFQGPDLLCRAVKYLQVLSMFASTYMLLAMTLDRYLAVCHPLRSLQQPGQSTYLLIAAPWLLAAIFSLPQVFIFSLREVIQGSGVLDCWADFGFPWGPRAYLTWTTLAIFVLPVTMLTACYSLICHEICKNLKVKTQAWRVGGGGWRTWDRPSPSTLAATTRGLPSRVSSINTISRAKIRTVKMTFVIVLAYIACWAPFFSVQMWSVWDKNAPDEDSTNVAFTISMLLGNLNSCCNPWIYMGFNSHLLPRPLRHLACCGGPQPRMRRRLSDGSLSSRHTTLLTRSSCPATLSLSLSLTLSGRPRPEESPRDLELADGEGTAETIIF
Method: 1. Vasopressin V1b Receptor Binding Assay:
The test substances were dissolved in a concentration of 10^−2 M in DMSO and further diluted to 5×10^−4 M to 5×10^−3 M. These serial DMSO predilutions were diluted 1:10 with assay buffer. The substance concentration was further diluted 1:5 in the assay mixture (2% DMSO in the mixture).
(§1) CHO-K1 cells with stably expressed human vasopressin V1b receptor (clone 3H2) were harvested and homogenized in 50 mM Tris-HCl and in the presence of protease inhibitors (Roche complete Mini #1836170) using a Polytron homogenizer at intermediate setting for 2×10 seconds, and subsequently centrifuged at 40 000×g for 1 h. The membrane pellet was again homogenized and centrifuged as described and subsequently taken up in 50 mM Tris-HCl, pH 7.4, homogenized and stored in aliquots frozen in liquid nitrogen at −190° C.
(§2) The binding assay was carried out by the method based on that of Tahara et al. (Tahara A et al., Brit. J. Pharmacol. 125, 1463-1470 (1998)).
(§3) The incubation buffer was: 50 mM Tris, 10 mM MgCl2, 0.1% BSA, pH 7.4.
In the assay mixture (250 μl), membranes (50 μg/ml protein in incubation buffer) from CHO-K1 cells with stably expressed human V1b receptors (cell line hV1b—3H2_CHO) were incubated with 1.5 nM ^3H-AVP (8-Arg-vasopressin, PerkinElmer #18479) in incubation buffer (50 mM Tris, 10 mM MgCl2, 0.1% BSA, pH 7.4) (total binding) or additionally with increasing concentrations of test substance (displacement experiment). The nonspecific binding was determined with […] (Bachem #H1780). All determinations were carried out as triplicate determinations. After incubation (60 minutes at room temperature), the free radioligand was filtered off by vacuum filtration (Skatron cell harvester 7000) through Wathman GF/B glass fiber filter mats, and the filters were transferred into scintillation vials. The liquid scintillation measurement took place in a model 2000 or 2200CA Tricarb instrument (Packard). Conversion of the measured cpm into dpm was carried out with the aid of a standard quench series.
(§4) The binding parameters were calculated by nonlinear regression in SAS. The algorithms of the program operate in analogy to the LIGAND analysis program (Munson P J and Rodbard D, Analytical Biochem. 107, 220-239 (1980)). The Kd of ^3H-AVP for the recombinant human V1b receptors is 0.4 nM and was used to determine the Ki.

[2] = target: T3, human vasopressin V1a receptor (Homo sapiens, UniProt P37288); test: Vasopressin V1a receptor binding assay; conditions: selectivity quotient, human receptors
T3 construct: expressed in transfected cells; host or cells: CHO-K1 (cell line hV1a_5_CHO), membrane preparation
T3 sequence (P37288 whole entry): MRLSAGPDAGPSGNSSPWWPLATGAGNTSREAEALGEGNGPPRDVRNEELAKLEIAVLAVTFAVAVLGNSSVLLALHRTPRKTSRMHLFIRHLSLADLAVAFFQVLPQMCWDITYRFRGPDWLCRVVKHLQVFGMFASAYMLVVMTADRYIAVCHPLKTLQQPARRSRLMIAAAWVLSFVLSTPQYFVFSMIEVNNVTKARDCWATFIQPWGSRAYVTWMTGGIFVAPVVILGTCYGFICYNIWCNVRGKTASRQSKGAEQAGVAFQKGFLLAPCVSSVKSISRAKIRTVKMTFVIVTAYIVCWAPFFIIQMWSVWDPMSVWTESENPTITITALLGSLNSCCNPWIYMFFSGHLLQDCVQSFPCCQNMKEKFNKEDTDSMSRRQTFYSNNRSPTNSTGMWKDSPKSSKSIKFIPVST
Method: 2. Vasopressin V1a Receptor Binding Assay:
The test substances were dissolved in a concentration of 10^−2 M in DMSO. Further dilution of these DMSO solutions took place in incubation buffer (50 mM Tris, 10 mM MgCl2, 0.1% BSA, pH 7.4).
as §1, with “V1a” for “V1b”, “5)” for “3H2)”
as §2, §3
In the assay mixture (250 μl), membranes (20 μg/ml protein in incubation buffer) from CHO-K1 cells with stably expressed human V1a receptors (cell line hV1a—5_CHO) were incubated with 0.04 nM ^125I-AVP (8-Arg-vasopressin, NEX 128) in incubation buffer (50 mM Tris, 10 mM MgCl2, 0.1% BSA, pH 7.4) (total binding) or additionally with increasing concentrations of test substance (displacement experiment). The nonspecific binding was determined with 1 μM AVP (Bachem #H1780). Triplicate determinations were carried out.
After incubation (60 minutes at room temperature), the free radioligand was filtered off by vacuum filtration (Skatron cell harvester 7000) through Wathman GF/B glass fiber filter mats, and the filters were transferred into scintillation vials.
The liquid scintillation measurement took place in a model 2000 or 2200CA Tricarb instrument (Packard). Conversion of the measured cpm into dpm was carried out with the aid of a standard quench series.
as §4, with “^125I-AVP” for “^3H-AVP”, “hV1a” for “human V1b”, “was determined in saturation experiments. A Kd of 1.33” for “is 0.4”, “nM” for “nM and”

| Ki(h − OT)/Ki(h − V1b)* (human oxytocin receptors) | Ki [1] [nM] | Ki(h − V1a)/Ki(h − V1b)* [2] | Compound |
| --- | --- | --- | --- |
| ++ (25-75) | < 1 | ++ (25-75) | CCOc1ncccc1C1(NC(=O)N2CCN(C3CCN(C)CC3)CC2)C(=O)N(S(=O)(=O)c2ccc(OC)cc2OC)c2cc(F)c(Cl)cc21 (stereo not drawn) [Example 19, 4-(1-Methylpiperidin-4-yl)piperazine-1-[5-chloro-1-(2,4-dimethoxyphenylsulfonyl)-3-(2-ethoxypyridin-3-yl)-6-fluoro-2-oxo-2,3-dihydro-1H-indol-3-yl]carboxamide] |
| + (10-<25) | 10 to 100 | +++ (>75) | CCOc1ncccc1C1(NC(=O)N2CCN(C3CCN(C)CC3)CC2)C(=O)N(S(=O)(=O)c2ccc(OC)cc2OC)c2cc(F)c(F)cc21 (stereo not drawn) [Example 31, 4-(1-Methylpiperidin-4-yl)piperazine-1-[1-(2,4-dimethoxyphenylsulfonyl)-3-(2-ethoxy-pyridin-3-yl)-5,6-difluoro-2-oxo-2,3-dihydro-1H-indol-3-yl]carboxamide] |
| +++ (>75) | 1 to 10 | +++ (>75) | CCOc1ncccc1C1(NC(=O)N2CCN(C3CCN(CC)CC3)CC2)C(=O)N(S(=O)(=O)c2ccc(OC)cc2OC)c2cc(F)c(F)cc21 (stereo not drawn) [Example 33, 4-(1-Ethylpiperidin-4-yl)piperazine-1-[1-(2,4-dimethoxyphenylsulfonyl)-3-(2-ethoxy-pyridin-3-yl)-5,6-difluoro-2-oxo-2,3-dihydro-1H-indol-3-yl]carboxamide] |

Further lines, the compound ahead of its results:

| Compound | Ki(h − OT)/Ki(h − V1b)* (human oxytocin receptors) | Ki [1] [nM] | Ki(h − V1a)/Ki(h − V1b)* [2] |
| --- | --- | --- | --- |
| CCOc1ncccc1C1(NC(=O)N2CCN(C3CCN(C)CC3)CC2)C(=O)N(S(=O)(=O)c2ccccc2)c2cc(F)c(Cl)cc21 (stereo not drawn) [Example 20, 4-(1-Methylpiperidin-4-yl)piperazine-1-[1-phenylsulfonyl-5-chloro-3-(2-ethoxypyridin-3-yl)-6-fluoro-2-oxo-2,3-dihydro-1H-indol-3-yl]carboxamide] | ++ (25-75) | 1 to 10 | + (10-<25) |
| CCOc1ncccc1C1(NC(=O)N2CCN(C3CCN(CC)CC3)CC2)C(=O)N(S(=O)(=O)c2ccc(OC)cc2OC)c2cc(F)c(Cl)cc21 (stereo not drawn) [Example 21, 4-(1-Ethylpiperidin-4-yl)piperazine-1-[5-chloro-1-(2,4-dimethoxyphenylsulfonyl)-3-(2-ethoxypyridin-3-yl)-6-fluoro-2-oxo-2,3-dihydro-1H-indol-3-yl]carboxamide] | +++ (>75) | < 1 | ++ (25-75) |
| CCOc1ncccc1C1(NC(=O)N2CCN(C3CCN(CC)CC3)CC2)C(=O)N(S(=O)(=O)c2ccccc2)c2cc(F)c(Cl)cc21 (stereo not drawn) [Example 22, 4-(1-Ethylpiperidin-4-yl)piperazine-1-[1-phenylsulfonyl-5-chloro-3-(2-ethoxypyridin-3-yl)-6-fluoro-2-oxo-2,3-dihydro-1H-indol-3-yl]carboxamide] | +++ (>75) | 1 to 10 | + (10-<25) |
| CCOc1ncccc1C1(NC(=O)N2CCC(N3CCN(C)CC3)CC2)C(=O)N(S(=O)(=O)c2ccc(OC)cc2OC)c2cc(F)c(Cl)cc21 (stereo not drawn) [Example 23, 4-(4-Methylpiperazin-1-yl)piperidine-1-[5-chloro-1-(2,4-dimethoxyphenylsulfonyl)-3-(2-ethoxypyridin-3-yl)-6-fluoro-2-oxo-2,3-dihydro-1H-indol-3-yl]carboxamide] | +++ (>75) | < 1 | + (10-<25) |
| CCOc1ncccc1C1(NC(=O)N2CCC(C3CCN(C)CC3)CC2)C(=O)N(S(=O)(=O)c2ccc(OC)cc2OC)c2cc(F)c(Cl)cc21 (stereo not drawn) [Example 26, 1′-Methyl[4,4′]bipiperidinyl-1-[5-chloro-1-(2,4-dimethoxyphenylsulfonyl)-3-(2-ethoxy-pyridin-3-yl)-6-fluoro-2-oxo-2,3-dihydro-1H-indol-3-yl]carboxamide] | +++ (>75) | < 1 | + (10-<25) |

From patent US8546401B2, “5,6-disubstituted oxindole-derivatives and use thereof for treating vasopressin-dependent diseases” (AbbVie Deutschland GmbH & Co. KG, priority 2007, dated 2013)
